Results as given in patent publication US9018391B2, “Inhibitors of beta-secretase” (Boehringer Ingelheim International GmbH, priority 2012, dated 2015).

How the values were obtained:
[1] = target: truncated human beta-secretase, BACE1 (amino acids 1-454) (Homo sapiens (Human), UniProt P56817); assay: BACE1 Assay (Assay 1), fluorescence quench assay; assay type: biochemical; conditions: pH 4.4
Description: The substrate was dissolved at 1 mg/ml in DMSO.
The assay was performed in the presence of OptiMEM™ (supernatant collected over 24 h and cleared from cellular debris by centrifugation) containing the ectodomain of BACE1, 25 μl water containing the desired 2-fold concentration of test compound and 2% DMSO, 1 μM substrate peptide, 20 mM NaOAc, pH 4.4, and 0.04% Triton-X100 in a total assay volume of 50 μl in a 384 well plate. In general, 25 μl of compound dilution were added to the plate followed by the addition of 10 μl of BACE1 containing OptiMEM™ diluted 1:10 in water with 0.2% Triton X-100. The reaction was started with the addition of 15 μl substrate in NaOAc buffer. The reaction was incubated at rt (dark) in an Envision® multilabel reader (Perkin Elmer) and the cleavage of the substrate was recorded as kinetic for […] at ex: 485 nm, em: 538 nm. Blank wells containing no enzyme were included on each plate.
The intensity of fluorescence was regressed against time in order to derive velocities of reaction in all 384 wells. These velocities were used for calculating percent control using an uninhibited control containing 1% DMSO as 100% and a blank control performed in the absence of enzyme as 0%. IC50 values were calculated by fitting percent control vs. test compound concentration using Assay Explorer®.

[2] = system: Human Hepatocytes; assay: In Vitro Hepatocyte Stability Assay (Assay 4); assay type: in vitro ADME; conditions: predicted blood clearance as percent of hepatic blood flow
Description: In Vitro Hepatocyte Stability Assay (Assay 4)
The metabolic degradation of test compounds was assayed in a hepatocyte suspension. Cryopreserved hepatocytes were incubated in an appropriate buffer system (e.g., Dulbecco's modified eagle medium plus 3.5 μg glucagon/500 mL, 2.5 mg insulin/500 mL and 3.75 mg/500 mL hydrocortison) containing 5% species serum. Following a 30 min preincubation in an incubator (37° C., 10% CO2), 5 μl of test compound solution (80 μM; from 2 mM in DMSO stock solution diluted 1:25 with medium) were added into 395 μl hepatocyte suspension (cell density in the range 0.25−5×10^6 cells/mL, typically 1×10^6 cells/mL; final concentration of test compound final DMSO concentration […]).
The cells were incubated for six h (incubator, orbital shaker) and samples (25 μl) were taken at 0, 0.5, 1, 2, 4 and 6 h. Samples were transferred into acetonitrile and pelleted by centrifugation (5 min). The supernatant was transferred to a new 96 DeepWell™ plate, evaporated under nitrogen and resuspended. Decline of compound was analyzed by HPLC-MS/MS. CLint (in vitro hepatic intrinsic clearance) was calculated as follows: CLint=Dose/AUC=(C0/CD)/(AUD+Clast/k)×1000/60
C0: initial concentration in the incubation [μM];
CD: cell density of vital cells [cells/mL];
AUD: area under the data [μM×h];
Clast: concentration of last data point [μM];
k: slope of the regression line for compound decline [h^−1].
The calculated in vitro hepatic intrinsic clearance was scaled up to the intrinsic in vivo hepatic clearance (Clint in vivo) and used to predict hepatic in vivo blood clearance (CL) by the use of a liver model (well-stirred model), as follows: CLint,in vivo[mL/min/kg]=(CLint[μL/min/10^6 cells]×hepatocellularity[10^6 cells/g liver]×liver factor [g/kg body weight])/1000 CL[mL/min/kg]=CLint,to vivo×hepatic blood flow[ml/min/kg]/(CLint,in vivo[ml/min/kg]+hepatic blood flow[mL/min/kg])
The in vivo blood clearance was transformed into percent of the hepatic blood flow (% Qh): % Qh=CL[mL/min/kg]/hepatic blood flow[mL/min/kg])×100
Hepatocellularity, human: 1.2×10^7 cells/g liver;
Liver factor, human: 25.7 g/kg body weight;
Hepatic blood flow, human: 21 mL/(min×kg).

[3] = In Vitro Phospholipidosis Assay (Assay 3), Nile red staining; assay type: cell-based, human; conditions: human, first effect concentration, U937 cells, read-out: Phospholipidosis FEC IC50 μM (assay 3)
Description: In Vitro Phospholipidosis Assay (Assay 3)
The phospholipidogenic potential of test compounds was assayed using the human hematopoetic U937 cell line. The test principle was to analyze the phospholipid content by staining the cells with the fluorescent dye Nile red.
U937 cells were seeded into cell culture plates at 0.5×10^6 cells/mL in RPMI medium containing 10% FBS, 1% DMSO, and 0.005% gentamicin. The cells were cultivated with or without different concentrations of test compound for 48 h under standard culture conditions.
For harvesting, the cells were centrifuged at 130×g for 4 min and washed once with PBS. Then, 2×0.5 mL cell suspensions were prepared for non-fixed cell measurement (0.5 mL for propidium iodide (PI) viability measurement and 0.5 mL for Nile red measurement).
The remaining cells were fixed with 3.7% formaldehyde for 30 min. After a further centrifugation step, cells were resuspended with 1.3 mL Nile red working solution (1 μg/mL) and incubated for 5 min at rt. The cell suspension was washed twice with 3 mL PBS and centrifuged with 130×g for 4 min. The supernatant was discarded and the cells were resuspended with 0.5 mL PBS and kept for flow cytometry measurement.
For Nile red staining of the 0.5 mL non-fixed cell samples, 50 μL of a ready to use Nile red solution (10 μg/mL) were added per sample. Samples were kept on ice for 5 min. Thereafter, they were washed once with 4 mL PBS (4° C., 250×g for 8 min) and finally resuspended in 400 μL PBS and kept for flow cytometry measurement.
For the viability measurement, 12.5 μL of the ready to use PI solution (10 μg/mL) were added to the 0.5 mL non-fixed cell suspension. After 15 min of incubation on ice, the samples were measured by flow cytometry using a Coulter Epics XL/MCL flow cytometer.
The viability of the cells of each sample was determined by flow cytometry measurement of the PI content at channel 2 (568-590 nm). Cut-off gates for the fluorescence-dependent differentiation between live and dead cells were defined based on the analysis of cell culture medium control samples.
Only samples with a cell viability of >=90% relative to control samples were analyzed for phospholipidosis. Each Nile red sample (non-fixed and fixed samples) was measured by flow cytometry at channel 1 (504-541 nm) and channel 4 (660-680 nm).
For each channel, relative Nile red fluorescence intensity of a test sample was calculated compared to control samples and expressed as a percentage of control fluorescence intensity. The assessment of the phospholipidogenic potential and the first effective concentration (FEC) of a test compound was done manually based on the fluorescence intensities at both wavelengths for the fixed cells, as well as for the non-fixed cells.

[4] = target: hERG channel (Homo sapiens (Human), UniProt Q12809); assay: hERG-Channel Assay (Assay 2), whole-cell patch clamp in HEK293 cells stably transfected with hERG cDNA; assay type: cell-based; conditions: for inhibition at 10 µM: human, HEK293 cells stably transfected with hERG cDNA, pH 7.4, 35° C.
From the text: hERG-Channel Assay (Assay 2)
Cells: HEK (human embryonic kidney) 293 cells were stably transfected with hERG cDNA.
Cells were superfused with a bath solution containing (mM): NaCl (137), KCl (4.0), MgCl2 (1.0), CaCl2 (1.8), Glucose (10), HEPES (10), pH 7.4 with NaOH. Patch pipettes were made from borosilicate glass tubing using a horizontal puller and filled with pipette solution containing (mM): K-aspartate (130), MgCl2 (5.0), EGTA (5.0), K2ATP (4.0), HEPES (10.0), pH 7.2 with KOH. Resistance of the microelectrodes was in the range between 2 and 5 MΩ.
Stimulation and Recording:
Membrane currents were recorded using an EPC-10 patch clamp amplifier and PatchMaster software. hERG-mediated membrane currents were recorded at 35° C., using the whole-cell configuration of the patch-clamp technique. Transfected HEK293 cells were clamped at a holding potential of −60 mV and hERG-mediated inactivating tail currents were elicited using a pulse pattern with fixed amplitudes (activation/inactivation: 40 mV for 2000 ms; recovery: −120 mV for 2 ms; ramp to 40 mV in 2 ms; inactivating tail current: 40 mV for 50 ms) repeated at 15 s intervals. During each inter-pulse interval, 4 pulses scaled down by a factor of 0.2 were recorded for a P/n leak subtraction procedure. Rs compensation was employed up to a level that safely allowed recording devoid of ringing.
Compound Preparation and Application:
The different concentrations of the test compounds were applied sequentially on each of the different cells investigated. A steady state level of baseline current was measured for at least 6 sweeps prior to the application of the first test compound concentration.
The test compound was dissolved in DMSO to yield a master stock solution which was diluted further in DMSO to stock solutions needed for the lower concentrations. Final dilutions in extracellular buffer were prepared freshly from these stocks by a 1:1000 dilution step each before starting the experiments.
Peak current amplitudes were measured 3 ms after the ramp to +40 mV. For baseline and each concentration, the peak currents of the three last sweeps before application of the next concentration were averaged. Residual currents (I/I0) were calculated for each cell as the fraction of actual average peak current and average baseline peak current.

Chain of hERG channel (Q12809 whole entry): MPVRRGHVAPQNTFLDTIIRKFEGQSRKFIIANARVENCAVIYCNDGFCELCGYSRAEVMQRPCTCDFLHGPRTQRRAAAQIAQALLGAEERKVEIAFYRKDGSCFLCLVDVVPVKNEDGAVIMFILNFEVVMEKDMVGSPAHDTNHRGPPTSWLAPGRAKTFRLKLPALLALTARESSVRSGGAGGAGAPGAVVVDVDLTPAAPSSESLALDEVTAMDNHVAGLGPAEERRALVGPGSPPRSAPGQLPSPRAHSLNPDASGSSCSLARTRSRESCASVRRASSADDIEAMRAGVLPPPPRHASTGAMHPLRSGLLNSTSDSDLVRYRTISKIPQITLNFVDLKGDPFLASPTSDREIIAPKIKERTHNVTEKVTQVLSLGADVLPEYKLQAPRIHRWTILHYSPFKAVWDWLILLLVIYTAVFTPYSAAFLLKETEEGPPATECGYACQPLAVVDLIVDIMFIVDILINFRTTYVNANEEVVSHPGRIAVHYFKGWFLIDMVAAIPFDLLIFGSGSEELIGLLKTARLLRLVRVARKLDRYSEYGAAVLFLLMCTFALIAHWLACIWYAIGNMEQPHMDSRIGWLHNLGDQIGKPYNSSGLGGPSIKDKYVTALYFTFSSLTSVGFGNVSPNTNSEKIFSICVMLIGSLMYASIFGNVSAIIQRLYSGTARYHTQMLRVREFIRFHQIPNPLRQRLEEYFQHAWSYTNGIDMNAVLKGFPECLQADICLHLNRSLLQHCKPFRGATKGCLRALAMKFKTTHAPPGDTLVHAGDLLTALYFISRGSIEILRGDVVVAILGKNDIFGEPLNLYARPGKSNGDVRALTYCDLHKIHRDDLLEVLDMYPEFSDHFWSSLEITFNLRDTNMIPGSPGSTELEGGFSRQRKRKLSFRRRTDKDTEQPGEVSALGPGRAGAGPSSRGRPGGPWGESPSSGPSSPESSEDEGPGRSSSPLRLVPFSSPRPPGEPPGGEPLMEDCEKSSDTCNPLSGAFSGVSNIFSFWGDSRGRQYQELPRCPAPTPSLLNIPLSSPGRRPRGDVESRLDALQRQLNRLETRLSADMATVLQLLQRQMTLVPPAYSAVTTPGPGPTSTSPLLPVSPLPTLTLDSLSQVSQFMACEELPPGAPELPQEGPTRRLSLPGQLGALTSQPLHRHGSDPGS
Chain of truncated human beta-secretase, BACE1 (amino acids 1-454) (P56817 22-454): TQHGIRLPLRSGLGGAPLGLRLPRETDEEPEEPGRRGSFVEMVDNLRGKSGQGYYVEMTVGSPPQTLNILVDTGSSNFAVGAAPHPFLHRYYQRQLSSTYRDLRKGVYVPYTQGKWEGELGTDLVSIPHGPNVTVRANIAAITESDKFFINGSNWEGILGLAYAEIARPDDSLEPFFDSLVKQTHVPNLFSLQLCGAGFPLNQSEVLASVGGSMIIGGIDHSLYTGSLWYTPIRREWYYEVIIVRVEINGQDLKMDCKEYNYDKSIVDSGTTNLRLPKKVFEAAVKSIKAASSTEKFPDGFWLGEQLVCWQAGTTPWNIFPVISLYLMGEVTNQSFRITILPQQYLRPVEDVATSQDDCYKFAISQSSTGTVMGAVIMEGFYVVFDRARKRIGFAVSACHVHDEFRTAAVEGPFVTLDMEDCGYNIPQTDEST

| Structure (SMILES) | IC50 [1] [nM] | In vitro Human Hepatocytes % Qh @ 1 μM (assay 4) [2] [% Qh] | IC50 at 48 h [3] [µM] | inhibition at 10 µM [4] [%] | % Inhibition hERG @ 10 μM (assay 2) ([4]; 35° C.) [%] |
| --- | --- | --- | --- | --- | --- |
| C[C@@H]1C[C@@]2(Cc3ccc(C#N)cc3[C@]23N=C(N)N(CC(C)(C)Cl)C3=O)C[C@H](C)[C@H]1O [Example 3] | 3 | 3.1 | 200 | 20 | – |
| C[C@@H]1C[C@@]2(Cc3ccc(-c4cncnc4)cc3[C@]23N=C(N)N(CC(C)(C)F)C3=O)C[C@H](C)[C@H]1O [Example 5] | 2.6 | 6.1 | 400 | 12 | – |
| C[C@@H]1C[C@@]2(Cc3ccc(NC(=O)C(C)(C)F)cc3[C@]23N=C(N)N(CC(C)(C)F)C3=O)C[C@H](C)[C@H]1O [Example 6] | 6.3 | 11 | 400 | 1.8 | – |
| CC[C@@H]1C[C@@]2(Cc3ccc(C#N)cc3[C@]23N=C(N)N(C[C@H]2COCCO2)C3=O)C[C@H](C)[C@H]1O [Example 8] | 1.9 | 19.1 | 800 | 6 | – |
| C[C@@H]1C[C@@]2(Cc3ccc(C#N)cc3[C@]23N=C(N)N(CC2CC2)C3=O)C[C@H](C)[C@H]1O [Example 10] | 10.6 | 0 | > 100 | 33 | – |
| C[C@@H]1CC2(Cc3ccc(Cl)cc3[C@]23N=C(N)N(Cc2ncccn2)C3=O)C[C@H](C)[C@H]1O (some centres unmarked) [Example 11] | 14.6 | 0 | 200 | 19 | – |
| C[C@H]1C[C@@]2(CC[C@@H]1O)Cc1ccc(-c3cccnc3)cc1[C@]21N=C(N)N(Cc2ncccn2)C1=O [Example 12] | 6.8 | 0 | 100 | 15 | – |
| C[C@H]1C[C@@]2(CC[C@@H]1O)Cc1ccc(C#N)cc1[C@]21N=C(N)N(CC2CC(F)(F)C2)C1=O [Example 13] | 8.7 | 4.2 | 200 | 12 | – |
| C[C@@H]1C[C@@]2(Cc3ccc(C#N)cc3[C@]23N=C(N)N(CC2CC(F)(F)C2)C3=O)C[C@H](C)[C@H]1O.O=C(O)C(F)(F)F [Example 14] | 4.5 | 5.2 | 200 | 27 | – |
| COC1CCC2(CC1)Cc1ccc(C#N)cc1[C@]21N=C(N)N(C)C1=O (some centres unmarked) [drawing 10, reference compound] | – | 14 | 400 | 90 | – |
| COC1CCC2(CC1)Cc1ccc(C#CC3CC3)cc1C21N=C(N)N(Cc2ncco2)C1=O (centres unmarked) [drawing 13, reference compound] | 5.1 | 8.5 | – | 60 | – |
| COC1CCC2(CC1)Cc1ccc(C#CC3CC3)cc1C21N=C(N)N(Cc2ncco2)C1=O (centres unmarked) [drawing 17, reference compound] | 5.1 | 8.5 | – | – | 60 |
| CO[C@H]1CC[C@]2(CC1)Cc1ccc(OCC3CC3)cc1C21N=C(N)N(CCC(F)(F)F)C1=O (some centres unmarked) [reference compound] | 8.3 | – | – | 87 | – |
| CO[C@H]1CC[C@]2(CC1)Cc1ccc(CCC(C)C)cc1C21N=C(N)N(CC(F)(F)F)C1=O (some centres unmarked) [reference compound] | 3.5 | 88 | – | 89 | – |
| COCC(C)N1C(=O)C2(N=C1N)c1cc(C#N)ccc1CC21CCC(OC)CC1 (centres unmarked) [reference compound] | 256 | – | – | – | – |
| COC1CCC2(CC1)Cc1ccc(Cl)cc1[C@]21N=C(N)N(C)C1=O (some centres unmarked) [reference compound] | – | – | 100 | 58 | – |
